“Also recorded” adds a separate entry of the source. Where a name gives a salt, the structure may show the parent alone.
How the values were obtained:
Type in all cases: cell-based
lung cancer cells (A549) = experiment: MTT assay, lung cancer cells (A549); details: A549, 0.625 μM to 10 µM, 24 hours
Experimental: (§1) Cell proliferation was evaluated through MTT analysis. SJCRH30 and CCD-18Co cells were seeded in triplicate in 96-well plates at a density of 2×10^4 cells per well. After 24 hours, each FDA-approved drug was diluted in fetal bovine serum (FBS)-free medium and the cells were treated therewith. After 24 hours of incubation, the medium was replaced with MTT solution (0.5 mg/mL) and the plates were incubated at 37° C. under 5% CO2. After 60 minutes of incubation, the supernatants were removed and 50 μL of DMSO was added to each well. The optical density in each well was measured at 570 nm using a microplate reader (VersaMax, Molecular Devices, USA).
(§2) MTT assay was performed by treating colorectal cancer cells (HCT-116), pancreatic cancer cells (PANC-1), lung cancer cells (A549), and breast cancer cells (MDA-MB-231) with each of ivacaftor and adapalene and treating colorectal cancer cells (HCT-116), pancreatic cancer cells (PANC-1), and lung cancer cells (A549) with dutasteride. The cells were treated with each of the three drugs at concentrations of 0.625 μM, 1.25 μM, 2.5 μM, 5 μM, and 10 µM for 24 hours and then observed.

[1] = test system: colorectal cancer cells (HCT-116); experiment: MTT assay, colorectal cancer cells (HCT-116); details: HCT-116, 0.625 μM to 10 µM, 24 hours
Experimental: as §1, §2

[2] = test system: SJCRH30 human alveolar rhabdomyosarcoma cells; experiment: MTT assay, proliferation of rhabdomyosarcoma cells (SJCRH30); details: for cell proliferation (MTT): SJCRH30, 5 μM and 10 μM; for cell killing effect (MTT): SJCRH30, 10 μM; for IC50: Homo sapiens, Rhabdomyosarcoma cell, SJCRH30, 24 hours, MTT, read-out: IC50 (half maximal inhibitory concentration)
Experimental: (§3) SJCRH30 human alveolar rhabdomyosarcoma cells were purchased from ATCC. Cells were cultured in RPMI1640 supplemented with 10% fetal bovine serum (FBS), 1% penicillin, and streptomycin. CCD-18Co human colon fibroblasts were purchased from the Korea Cell Line Bank. Cells were cultured in DMEM supplemented with 10% fetal bovine serum (FBS), 1% penicillin, and streptomycin. All cells were cultured in an incubator at 37° C. under 5% CO2.
as §1
MTT assay was performed to evaluate the effects of FDA-approved drugs on the proliferation of rhabdomyosarcoma cells (SJCRH30). Rhabdomyosarcoma cells were treated with each of 18 drugs at concentrations of 5 μM and 10 μM, respectively, and observed after 24 hours.
(§4) Rhabdomyosarcoma cells (SJCRH30) and colon fibroblasts (CCD-18Co) were treated with ivacaftor at concentrations of 0.625 μM, 1.25 μM, 2.5 μM, 5 μM, and 10 µM and compared.
MTT assay was performed to compare IC50 (half maximal inhibitory concentration) values of pazopanib HCl, which is used for soft tissue sarcoma patients, and ivacaftor, against rhabdomyosarcoma cells (SJCRH30). Rhabdomyosarcoma cells were treated with each of pazopanib HCl and ivacaftor at concentrations of 0.625 μM, 1.25 μM, 2.5 μM, 5 μM, 10 µM, 20 μM, 40 μM, and 60 µM for 24 hours and then observed.

[3] = test system: pancreatic cancer cells (PANC-1); experiment: MTT assay, pancreatic cancer cells (PANC-1); details: PANC-1, 0.625 μM to 10 µM, 24 hours
Experimental: as §1, §2

[4] = test system: breast cancer cells (MDA-MB-231); experiment: MTT assay, breast cancer cells (MDA-MB-231); details: MDA-MB-231, 0.625 μM to 10 µM, 24 hours
Experimental: as §1, §2

[5] = test system: CCD-18Co human colon fibroblasts; experiment: MTT assay, toxicity to normal cells (CCD-18Co); details: 0.625 μM to 10 µM, all concentrations, 24 hours
Experimental: as §3, §1, §4

IC50 [2] [µM]	Compound	cell proliferation (MTT) (lung cancer cells (A549))	cell proliferation (MTT) [1]	cell proliferation (MTT) ([2]; 24 hours)	cell killing effect (MTT) ([2]; 24 hours)	cell proliferation (MTT) [3]	cell number (MTT) ([2]; SJCRH30, at 1.25 μM, 2.5 μM, 5 μM and 10 μM, 24 hours)	cell proliferation (MTT) [4]	cell number (MTT), toxicity to normal cells [5]
–	C[C@]12C=CC(=O)N[C@@H]1CC[C@@H]1[C@@H]2CC[C@]2(C)[C@@H](C(=O)Nc3cc(C(F)(F)F)ccc3C(F)(F)F)CC[C@@H]12 [dutasteride]	decrease in cell proliferation	decrease in cell proliferation	significant decrease in cell proliferation	significant cell killing effect	decrease in cell proliferation	–	–	–
40.9	Cc1ccc(Nc2nccc(N(C)c3ccc4c(C)n(C)nc4c3)n2)cc1S(N)(=O)=O [pazopanib HCl]	–	–	–	–	–	–	–	–
5.11	CC(C)(C)c1cc(C(C)(C)C)c(NC(=O)c2c[nH]c3ccccc3c2=O)cc1O [ivacaftor]	significant decrease in cell proliferation	–	significant decrease in cell proliferation; also recorded: highest effect on cell proliferation reduction	significant cell killing effect	significant decrease in cell proliferation	significant decrease in the cell number	significant decrease in cell proliferation	no significant decrease in the cell number
–	COc1ccc(-c2ccc3cc(C(=O)O)ccc3c2)cc1C12CC3CC(CC(C3)C1)C2 [adapalene]	significant decrease in cell proliferation	significant decrease in cell proliferation	significant decrease in cell proliferation	significant cell killing effect	significant decrease in cell proliferation	–	significant decrease in cell proliferation	–
–	C[C@@H](O[C@H]1OCCN(Cc2n[nH]c(=O)[nH]2)[C@H]1c1ccc(F)cc1)c1cc(C(F)(F)F)cc(C(F)(F)F)c1 [aprepitant]	–	–	significant decrease in cell proliferation	significant cell killing effect	–	–	–	–
